Assay results taken from the NIST ThermoML archive (doi:10.1016/j.jct.2013.09.043).
± gives the expanded uncertainty stated by the source.

Assay: xn = mol fraction of the nth substance listed
Details: 101 kPa, Liquid; for viscosity: Capillary tube (Ostwald / Ubbelohde) method; for mass density: Vibrating tube method

CCCCC(C)O (stereo not drawn) [2-hexanol] + NC=O
Details | mass density, 298.15 K [kg/m3] | mass density, 303.15 K [kg/m3] | mass density, 308.15 K [kg/m3] | mass density, 313.15 K [kg/m3] | viscosity, 298.15 K [mPa·s] | viscosity, 303.15 K [mPa·s] | viscosity, 308.15 K [mPa·s] | viscosity, 313.15 K [mPa·s]
x2 = 0 | 810.14 ± 1 | 806.13 ± 1 | 802.06 ± 1 | 797.96 ± 1 | 4.101 ± 0.17 | 3.411 ± 0.14 | 2.819 ± 0.12 | 2.219 ± 0.09
x2 = 0.0818 | 818.06 ± 1 | 814.05 ± 1 | 809.79 ± 1 | 805.72 ± 1 | 4.008 ± 0.16 | 3.334 ± 0.14 | 2.753 ± 0.11 | 2.171 ± 0.088
x2 = 0.1638 | 827.12 ± 1 | 823.03 ± 1 | 818.79 ± 1 | 814.58 ± 1 | 3.918 ± 0.16 | 3.276 ± 0.13 | 2.711 ± 0.11 | 2.16 ± 0.088
x2 = 0.2392 | 836.66 ± 1 | 832.51 ± 1 | 828.24 ± 1 | 823.99 ± 1 | 3.85 ± 0.16 | 3.23 ± 0.13 | 2.69 ± 0.11 | 2.169 ± 0.088
x2 = 0.3529 | 853.7 ± 1 | 849.5 ± 1 | 845.26 ± 1 | 841.01 ± 1 | 3.778 ± 0.15 | 3.176 ± 0.13 | 2.679 ± 0.11 | 2.199 ± 0.089
x2 = 0.4439 | 870.39 ± 1 | 866.2 ± 1 | 861.95 ± 1 | 857.71 ± 1 | 3.744 ± 0.15 | 3.187 ± 0.13 | 2.686 ± 0.11 | 2.235 ± 0.091
x2 = 0.5613 | 897.25 ± 1 | 893.04 ± 1 | 888.76 ± 1 | 884.48 ± 1 | 3.695 ± 0.15 | 3.185 ± 0.13 | 2.71 ± 0.11 | 2.3 ± 0.093
x2 = 0.6496 | 922.95 ± 1 | 918.63 ± 1 | 914.3 ± 1 | 909.96 ± 1 | 3.647 ± 0.15 | 3.169 ± 0.13 | 2.724 ± 0.11 | 2.35 ± 0.095
x2 = 0.743 | 957.42 ± 1 | 953.01 ± 1 | 948.59 ± 1 | 944.27 ± 1 | 3.582 ± 0.14 | 3.144 ± 0.13 | 2.726 ± 0.11 | 2.392 ± 0.097
x2 = 0.8502 | 1010.56 ± 1 | 1006.13 ± 1 | 1001.67 ± 1 | 997.41 ± 1 | 3.479 ± 0.14 | 3.078 ± 0.12 | 2.695 ± 0.11 | 2.406 ± 0.097
x2 = 0.9398 | 1072.59 ± 1 | 1068.37 ± 1 | 1063.89 ± 1 | 1059.71 ± 1 | 3.378 ± 0.14 | 3.021 ± 0.12 | 2.662 ± 0.11 | 2.413 ± 0.098
